These results are taken from patent US6716813B2, “Use of antimicrobial proteins and peptides for the treatment of otitis media and paranasal sinusitis” (priority 2000, dated 2004).

Like-named read-outs stand apart in the source and are kept apart here. Positions of bridges follow the written chain, without caps; N, C: chain ends. No end group written: not given here.

In one assay the test system is NTHi strain12. Format: cell-based, nontypeable Haemophilus influenzae. The following applies: for effect of salt on the growth inhibitory effect against NTHi: 100 mM NaCl in gel. How it is done:
(§1) The bacteria used in the following examples were cultured as follows: Stocks of NTHi12 and M. catarrhalis […] (generous gift of Dr. Xin-Xing Gu) were maintained at -80° C. For experiments, the bacteria were plated on chocolate agar and incubated overnight at 37° C. in 5% CO2. A single colony was then picked and transferred to 10 ml of brain heart infusion (BHI, Becton Dickinson, Cockeysville, Md.), supplemented with hemin (10 μg/ml, Sigma, St. Louis, Mo.) and NAD (10 μg/ml, Sigma, St. Louis, Mo.), and allowed to grow overnight. In the morning, 1/10 volume of the overnight culture was transferred to fresh medium and incubated for 3-hours. The subculture was then washed twice with 10 mM sodium phosphate and the O.D. at 620 nm was determined. For the S. pneumoniae serotypes 3 and 6B (generous gift of Dr. Xin-Xing Gu), a 50 μl aliquot of the -80° C. stock was thawed on ice, added to 10 ml of Todd-Hewitt broth (THB, Becton Dickinson, Cockeysville, Md.) and cultured overnight. One tenth of the volume of the overnight culture was then transferred to fresh medium and incubated for 3-hours. The subculture was then washed twice with 10 mM sodium phosphate and the O.D. at 620 nm was determined. The radial assay method of […] and coworkers was used, with minor modifications ([…] et al., 1991). The subcultured bacteria (4×10^6 CFU/10 ml underlay gel) were mixed with melted underlay gel at 42° C. (0.1×culture broth-BHI for NTHi and Moraxella and THB for S. pneumoniae-10 mM sodium phosphate, 0.8% low electroendosmosis (EEO)-type agarose) and poured into 8 cm×8 cm square petri plates. The gel was allowed to solidify in the petri plates and wells were punched out with a calibrated 200 μl micropipette tip, cut off at the 50 μl mark (approximately 3 mm). The antimicrobial peptides and proteins were dissolved in 0.01% acetic acid and 4 μl was added to each well. The plates were then incubated for 3 hours at 37° C. in the 5% CO2 incubator. They were next overlaid with the overlay gel (0.5×culture broth, 10 mM sodium phosphate, 0.8% low EEO-type agarose) and covered. The plates were then allowed to incubate overnight at 37° C. in a 5% CO2. The diameter of the zones of inhibition produced by each of the antimicrobial molecules against the OM pathogens (NTHi, M. catarrhalis and S. pneumoniae) was then measured in three separate experiments and the average and standard deviation were calculated. Physiologically, salt concentrations vary depending on the site. However, typically they can be as high as 150 mM. Thus, the salt sensitivity of the antimicrobial molecules was tested. NaCl was added to the gel in Example 2 to obtain a final concentration of 100 mM.

Assay [1] relates to M. catarrhalis strain 035E. The class given is cell-based, Moraxella catarrhalis. The following applies: for effect of salt on the growth inhibitory effect against M. catarrhalis: 100 mM NaCl in gel; for Diameter of the inhibition zone, M. catarrhalis: no added NaCl, average of 3 experiments ± SD. How it is done: as §1
The test system of a further assay is M. catarrhalis. Briefly: ultrastructural analysis (electron microscopy). Format: cell-based, Moraxella catarrhalis. As for the experimental part: (§2) […] The bacterial pellets were left in the fixative at 4° C. for 2 hr, post-fixed in 2% osmium tetroxide, dehydrated in ethanol and embedded in Eponate 12 (Ted Pella, Redding, Calif.). Sections were mounted in coated specimen grids, contrasted with uranyl acetate and lead citrate and examined in a transmission electron microscope (CM120 BioTwin, FEI-Philips, Hillsboro, Oreg.) operating at 80 kV. Images were recorded on photographic film and were subsequently digitized.

The subject of assay [2] is S. pneumoniae serotype 6B. Format: cell-based, Streptococcus pneumoniae. As to conditions: for effect of salt on the growth inhibitory effect against S. pneumoniae serotype 6B: 100 mM NaCl in gel. How it is done:
as §1

Assay [3] concerns S. pneumoniae serotype 3. Format: cell-based, Streptococcus pneumoniae. As to conditions: for effect of salt on the growth inhibitory effect against S. pneumoniae serotype 3: 100 mM NaCl in gel. As for the experimental part: as §1
A further assay concerns NTHi. Briefly: ultrastructural analysis (electron microscopy). The class given is cell-based, nontypeable Haemophilus influenzae. As for the experimental part:
as §2

Assay [4] has as its system non-typeable Haemophilus influenzae (NTHi). The class given is cell-based. As to conditions: 10 μg/ml. As for the experimental part:
The ability of a few of these innate immune mediators: human milk lysozyme (Lz), human β-defensins (HBD) 1 and 2 and human milk lactoferrin (LF) to inhibit the growth of non-typeable Haemophilus influenzae (NTHi) at other concentrations was also investigated using a different type of assay, a colony formation assay. The molecules were tested separately, as well as in combination, and the effect on NTHi growth was determined using a colony formation assay. […] In previous studies, it was shown that the concentration of lysozyme in middle ear effusion can be as high as 3.7 mg/ml and thus the concentrations used in these studies are well within the physiological range. Incubating the bacteria with 10 μg/ml of either human β-defensin 1 or 2 produced an even more pronounced effect, with close to a 95% reduction in the number of colonies. […] For example, the bacteria may be more sensitive to the antimicrobials in a liquid assay, such as the colony forming assay.

Assay [5] relates to S. pneumoniae serotype 6B. Briefly: ultrastructural analysis (electron microscopy). As to conditions: 10 μg/ml, three-hour treatment. Format: cell-based, Streptococcus pneumoniae. As for the experimental part: (§3) Electron microscopy was performed by treating the bacterial cultures with antimicrobial protein or peptide for 3 hours, mixing with an equal volume of 5% buffered glutaradehyde (pH 7.4) and centrifuging (5000×g, for 20 minutes). The bacterial pellets were left in the fixative at 4° C. for 2 hr, post-fixed in 2% osmium tetroxide, dehydrated in ethanol and embedded in Eponate 12 (Ted Pella, Redding, Calif.). Sections were mounted in coated specimen grids, contrasted with uranyl acetate and lead citrate and examined in a transmission electron microscope (CM120 BioTwin, FEI-Philips, Hillsboro, Oreg.) operating at 80 kV. Images were recorded on photographic film and were subsequently digitized.

The subject of assay [6] is S. pneumoniae serotype 3. Kind of assay: ultrastructural analysis (electron microscopy). Format: cell-based, Streptococcus pneumoniae. The following applies: three-hour treatment. As for the experimental part:
as §3

Where [7] appears, read: 4 and 10 μg, equivalent to 1 and 2.5 mg/ml.
Setting [8] is: 40 μg per well, equivalent to 10 mg/ml.

Consider “GIGDPVTCLKSGAICHPVFCPRRYKQIGTCGLPGTKCCKKP (disulfide 8-37, 15-30, 20-38) [HBD-2, β-defensin 2]”, for which the “effect of salt on the growth inhibitory effect against NTHi” value in the assay on NTHi strain12 is listed as “did not inhibit the activity”. Further, the “effect on growth of NTHi” value in the assay on NTHi strain12 (setting [7]) is “significantly inhibited the growth”. Further, the “effect of salt on the growth inhibitory effect against M. catarrhalis” value in assay [1] is given as “did not inhibit the activity”. Further, in assay [1] (setting [7]), the “effect on growth of M. catarrhalis” value was “significantly inhibited the growth”. In addition, the “ultrastructural changes of M. catarrhalis” value with M. catarrhalis (30-minute incubation) was “substantial damage to the cells”. Besides, the “effect of salt on the growth inhibitory effect against S. pneumoniae serotype 6B” value in assay [2] is reported as “blocked the effect”. Also, in assay [2] (setting [7]), the “effect on growth of S. pneumoniae serotype 6B” value is given as “significantly inhibited the growth”. The “effect of salt on the growth inhibitory effect against S. pneumoniae serotype 3” value in the assay on S. pneumoniae serotype 3 [3] is “blocked the effect”. Further, the “effect on growth of S. pneumoniae serotype 3” value with S. pneumoniae serotype 3 [3] (setting [7]) was “significantly inhibited the growth”. Also, the “ultrastructural changes of NTHi” value is on record as “blebbing of the membranes with extrusion of the cytoplasmic contents into the blebs” in the assay on NTHi (10 μg/ml, 3 hours) and “Morphological changes were also apparent” in the assay on NTHi (10 μg/ml, 3 hours, listed as human β-defensin 2). Further, the “reduction in the number of colonies” value in [4] was around 95%. Besides, the “ultrastructural changes of S. pneumoniae serotype 6B” value in [5] was “damage to the capsule and condensation of the cytoplasmic material”. Besides, in the assay with S. pneumoniae serotype 3 [6] (10 μg/ml), the “ultrastructural changes of S. pneumoniae serotype 3” value was “disappearance of the capsule in certain regions and the lysis of the bacteria”.

On to “β-defensin 1 (GNFLTGLGHRSDHYNCVSSGGQCLYSACPIFTKIQGTCYRGKAKCCK; not fully specified; cysteine pairing not given here) [HBD-1, human beta defensin 1, cationic antimicrobial peptide produced by epithelial cells]”, for which the “effect of salt on the growth inhibitory effect against NTHi” value in the assay on NTHi strain12 is given as “completely blocked”. Moreover, in assay [1] (10 μg in 4 μl per well), the “Diameter of the inhibition zone, M. catarrhalis” value is recorded as 7.7 ± 0.6 mm. Besides, in assay [1], the “effect of salt on the growth inhibitory effect against M. catarrhalis” value is “completely blocked”. Further, the “effect on growth of M. catarrhalis” value in assay [1] (high dose, 10 μg, equivalent to 2.5 mg/ml) is “effective”. Besides, the “effect of salt on the growth inhibitory effect against S. pneumoniae serotype 6B” value in [2] is listed as “completely blocked”. Further, in the assay on S. pneumoniae serotype 3 [3], the “effect of salt on the growth inhibitory effect against S. pneumoniae serotype 3” value is reported as “completely blocked”. The “ultrastructural changes of NTHi” value in the assay with NTHi (10 μg/ml, 3 hours) was “Morphological changes were also apparent”. In addition, in [4], the “reduction in the number of colonies” value is around 95%.

With human lysozyme [hLz], the “effect of salt on the growth inhibitory effect against NTHi” value with NTHi strain12 is listed as “completely blocked”. Further, the “effect on growth of NTHi” value in the assay with NTHi strain12 (dose not given) is given as “no effect”. Further, the “Diameter of the inhibition zone, M. catarrhalis” value in [1] (40 μg in 4 μl per well) was determined as 4 ± 1.7 mm. For the same substance, the “effect on growth of M. catarrhalis” value in assay [1] (setting [8]) is “slight but visible inhibition”. In assay [1], the “effect of salt on the growth inhibitory effect against M. catarrhalis” value is recorded as “completely blocked”. For the same substance, in the assay on M. catarrhalis (1-minute treatment), the “ultrastructural changes of M. catarrhalis” value is recorded as “formation of blebs”. For the same substance, in assay [2] (40 μg in 4 μl per well, no added NaCl, average of 3 experiments ± SD), the “Diameter of the inhibition zone, S. pneumoniae 6B” value is recorded as 5 ± 1.7 mm. The “effect on growth of S. pneumoniae serotype 6B” value in assay [2] (setting [8]) is given as “slight but visible inhibition”. Also, the “effect of salt on the growth inhibitory effect against S. pneumoniae serotype 6B” value in assay [2] is “completely blocked”. Also, the “effect of salt on the growth inhibitory effect against S. pneumoniae serotype 3” value in the assay with S. pneumoniae serotype 3 [3] is on record as “completely blocked”. Further, the “effect on growth of S. pneumoniae serotype 3” value with S. pneumoniae serotype 3 [3] (dose not given) is recorded as “appeared to enhance the growth”. Besides, the “ultrastructural changes of NTHi” value was “Few completely lysed bacteria were observed” with NTHi (100 μg/ml, 3 hour); “extrusion of the outer membrane could clearly be seen” in the assay with NTHi (100 μg/ml, 3 hour, listed as human milk lysozyme); “blebbing of the membranes with extrusion of the cytoplasmic contents into the blebs” with NTHi (1 mg/ml, 3 hour). Also, the “ultrastructural changes of NTHi, one hour compared with 3 hours” value in the assay with NTHi (one hour treatment) is “similar”. The “ultrastructural changes of S. pneumoniae serotype 3” value in the assay on S. pneumoniae serotype 3 [6] (1 mg/ml) is “many fewer bacteria appear to be lysed”.
